Literature values, collected in PubChem BioAssay AID1259410 (Chemical Carcinogenesis Research Information System (CCRIS), 2018).

Tested on: rodent tumor promotion studies, tumor incidence
Experiment: CCRIS tumor promotion studies
From the text: The CCRIS database contains chemical records with carcinogenicity, mutagenicity, tumor promotion, and tumor inhibition test results. It was developed by the National Cancer Institute (NCI). Data are derived from studies cited in primary journals, current awareness tools, NCI reports, and other sources. Test results have been reviewed by experts in carcinogenesis and mutagenesis.
CCRIS provides historical information from the years 1985 - 2011. It is no longer updated.
This is an archive assay for CCRIS tumor promotion studies.

**Q.** With `O=C(O)CN(CC(=O)O)CC(=O)O` as the compound, how does the outcome (Carcinogen: N-BIS(2-HYDROXYPROPYL)NITROSAMINE, 53609-64-6, Doses [Carcinogen]: 0.2% IN DRINKING WATER FOR 2 WK, Doses [Promoter]: 0, 1% IN DIET FOR 30 WK BEGINNING POST CARCINOGEN DOSE (STUDY DURATION: 32 WK), Route [Carcinogen]: ORAL, Route [Promoter]: ORAL, Species: RAT, Strain/Sex: WISTAR/MALE) read?
**A.** bladder: papilloma

**Q.** And the outcome (Carcinogen: N-BUTYL-N-(4-HYDROXYBUTYL)NITROSAMINE, 3817-11-6, Doses [Carcinogen]: 500 PPM IN DRINKING WATER FOR 4 WK, Doses [Promoter]: 0, 10000 PPM IN DIET BEGINNING POST CARCINOGEN TREATMENT AND CONTINUING FOR 28 WK (STUDY DURATION: 32 WK), Route [Carcinogen]: ORAL, Route [Promoter]: ORAL, Species: RAT, Strain/Sex: WISTAR/MALE)?
**A.** urinary bladder: papilloma, transitional cell carcinoma

**Q.** What about the outcome (Carcinogen: N-BUTYL-N-(4-HYDROXYBUTYL)NITROSAMINE, 3817-11-6, Doses [Carcinogen]: 500 PPM IN DRINKING WATER FOR 4 WK, Doses [Promoter]: 0, 10000 PPM IN DIET FOR 28 WK STARTING POST CARCINOGEN (STUDY DURATION: 32 WK), Route [Carcinogen]: ORAL, Route [Promoter]: ORAL, Species: RAT, Strain/Sex: WISTAR/MALE) of the same compound?
**A.** bladder: papilloma, transitional cell carcinoma, squamous cell carcinoma

**Q.** And the outcome (Carcinogen: N-ETHYL-N-(2-HYDROXYETHYL)NITROSAMINE, Doses [Carcinogen]: 1000 PPM IN DIET FOR 2 WK, Doses [Promoter]: 500, 10000 PPM IN DIET FOR 30 WK, Route [Carcinogen]: ORAL, Route [Promoter]: ORAL, Species: RAT, Strain/Sex: WISTAR/MALE)?
**A.** kidney: tubular cell tumor

**Q.** What about the outcome (Carcinogen: N-ETHYL-N-HYDROXYETHYLNITROSAMINE, 13147-25-6, Doses [Carcinogen]: 0.1% IN DIET FOR 2 WK, Doses [Promoter]: 0, 1% IN DIET BEGINNING POST CARCINOGEN TREATMENT AND CONTINUING FOR 30 WK (STUDY DURATION: 32 WK), Route [Carcinogen]: ORAL, Route [Promoter]: ORAL, Species: RAT, Strain/Sex: F344/MALE) of the same compound?
**A.** kidney: adenoma or carcinoma

**Q.** And the outcome (Carcinogen: N-ETHYL-N-HYDROXYETHYLNITROSAMINE, 13147-25-6, Doses [Carcinogen]: 1000 PPM IN DIET FOR 2 WK, Doses [Promoter]: 0, 500, 10000 PPM IN DIET FOR 30 WK STARTING POST CARCINOGEN (STUDY DURATION: 32 WK), Doses [Promoter]: 0, 500, 10000 PPM IN DIET FOR 30 WK STARTING POST CARCINOGEN (STUDY DURATION: 32 WK), Route [Carcinogen]: ORAL, Route [Promoter]: ORAL, Species: RAT, Strain/Sex: WISTAR/MALE)?
**A.** kidney: tubular cell tumor

**Q.** What about the outcome (Carcinogen: Potassium bromate (7758-01-2), Doses [Carcinogen]: 60, 125, 250 and 500 ppm in drinking water for 13 wk (study duration 52 wk), Doses [Promoter]: 1% in diet for 37 wks starting 2 wk after end of carcinogen administration (study duration 52 wk), Route [Carcinogen]: Oral, Route [Promoter]: Oral, Species: Rat, Strain/Sex: F344 (15/Group)) of the same compound?
**A.** kidney: significant increase in multiplicity of atypical tubules and of incidenc

**Q.** Which outcome (Carcinogen: 3'-METHYL-4-DIMETHYLAMINOAZOBENZENE, Doses [Carcinogen]: DIET, Route [Carcinogen]: ORAL, Species: RAT, Strain/Sex: FEMALE) does the source give for `ClC(Cl)(Cl)Cl` here?
**A.** liver

**Q.** What about the outcome (Carcinogen: (+/-)-TRANS-7,8-DIHYDROBENZO[A]PYRENE-7,8-DIOL, 61443-57-0, Doses [Carcinogen]: 1 UG CO-ADMINISTERED WITH PROMOTER DOSE, Doses [Promoter]: 1 UG INJECTED INTO NEWLY HATCHED SAC-FRY CO-ADMINISTERED WITH CARCINOGEN DOSE (STUDY DURATION: 9 MO), Route [Carcinogen]: INJECTION, Route [Promoter]: INJECTION, Species: FISH, Strain/Sex: RAINBOW TROUT/MALE,FEMALE) of the same compound?
**A.** liver: tumor

**Q.** What about the outcome (Doses [Carcinogen]: 20 NG/SAC-FRY, Doses [Promoter]: 0, 1 ML/KG AT 21-DAY INTERVALS FOR A TOTAL OF 3 DOSES BEGINNING 25 D POST CARCINOGEN TREATMENT (STUDY DURATION: 3 MO), Route [Carcinogen]: INJECTION, Route [Promoter]: INTRAPERITONEAL, Species: FISH, Strain/Sex: RAINBOW TROUT) of the same compound?
**A.** liver: basophilic carcinoma

**Q.** Which outcome (Carcinogen: 7,12-Dimethylbenz(a)anthracene, 57-97-6, Doses [Carcinogen]: 100 ug in 100 ul acetone once at 6 wk of age, Doses [Promoter]: 0, 85 mg, daily for 5 d/wk beginning 1 wk after carcinogen administration for 35 wk, study duration 36 wk, Route [Carcinogen]: Dermal, Route [Promoter]: Dermal, Species: Mouse, Strain/Sex: ICR/Female) does the source give for `CC(=O)OCC(COC(C)=O)OC(C)=O` here?
**A.** skin: none

**Q.** What about the outcome (Carcinogen: 7,12-Dimethylbenz(a)anthracene, 57-97-6, Doses [Carcinogen]: 100 ug in 100 ul acetone once at 6 wk of age, Doses [Promoter]: 0, 85 mg, twice daily for 5 d/wk beginning 1 wk after carcinogen administration for 35 wk, study duration 36 wk, Route [Carcinogen]: Dermal, Route [Promoter]: Dermal, Species: Mouse, Strain/Sex: ICR/Female) of the same compound?
**A.** skin: none

**Q.** With `Clc1ccc(C(c2ccc(Cl)cc2)C(Cl)(Cl)Cl)cc1` as the compound, how does the outcome (Carcinogen: 2-(ACETYLAMINO)FLUORINE, Doses [Carcinogen]: DIET, Doses [Promoter]: IN DIET, Route [Carcinogen]: ORAL, Route [Promoter]: ORAL, Species: RAT, Strain/Sex: MALE) read?
**A.** liver

**Q.** What about the outcome (Carcinogen: N-METHYL-N'-NITRO-N-NITROSOGUANIDINE, 70-25-7, Doses [Carcinogen]: 50 PPM FOR 60 MIN, Doses [Promoter]: 0, 100 PPM IN DIET BEGINNING 14 WK POST CARCINOGEN DOSE (STUDY DURATION: 12 MO), Route [Carcinogen]: IMMERSION, Route [Promoter]: ORAL, Species: FISH, Strain/Sex: RAINBOW TROUT) of the same compound?
**A.** liver: tumor

**Q.** What about the outcome (Carcinogen: N-NITROSODIETHYLAMINE, 55-18-5, Doses [Carcinogen]: 90 MG/KG BW ONCE, Doses [Promoter]: 0, 300 PPM IN DIET FOR 53 WK BEGINNING 2 WK POST CARCINOGEN DOSE (STUDY DURATION: 55 WK), Route [Carcinogen]: INTRAPERITONEAL, Route [Promoter]: ORAL, Species: MOUSE, Strain/Sex: D2B6F1/MALE) of the same compound?
**A.** liver: hepatocellular adenoma, hepatocellular carcinoma

**Q.** What about the outcome (Doses [Carcinogen]: 0.5 PPM FOR 30 MIN, Doses [Promoter]: 0, 100 PPM IN DIET BEGINNING 14 WK POST CARCINOGEN DOSE (STUDY DURATION: 12 MO), Route [Carcinogen]: IMMERSION, Route [Promoter]: ORAL, Species: FISH, Strain/Sex: RAINBOW TROUT) of the same compound?
**A.** liver: tumor

**Q.** And the outcome (Doses [Carcinogen]: 50 UG 2/WK FOR WK 1-4 OF STUDY THEN 75 UG 2/WK FOR WK 5-8, Doses [Promoter]: 0, 7.5 MG 2/WK FOR 14 WK BEGINNING 1 WK POST CARCINOGEN TREATMENT (STUDY DURATION: 1 YR), Route [Carcinogen]: GAVAGE, Route [Promoter]: GAVAGE, Species: RAT, Strain/Sex: WISTAR/MALE)?
**A.** liver: carcinoma

**Q.** What about the outcome (Doses [Carcinogen]: 50 UG 2/WK FOR WK 1-4 OF STUDY THEN 75 UG 2/WK FOR WK 5-8, Doses [Promoter]: 0, 7.5 MG 2/WK FOR 14 WK BEGINNING 3 WK POST CARCINOGEN TREATMENT (STUDY DURATION: 1 YR), Route [Carcinogen]: GAVAGE, Route [Promoter]: GAVAGE, Species: RAT, Strain/Sex: WISTAR/MALE) of the same compound?
**A.** liver: carcinoma

**Q.** With `N[C@@H](Cc1c[nH]c2ccccc12)C(=O)O` as the compound, how does the outcome (Carcinogen: N-(4-(5-NITRO-2-FURYL)-2-THIAZOLYL)FORMAMIDE, Doses [Carcinogen]: DIET, Doses [Promoter]: IN DIET, Route [Carcinogen]: ORAL, Route [Promoter]: ORAL, Species: MOUSE, Strain/Sex: FEMALE) read?
**A.** urinary bladder

**Q.** Which outcome (Carcinogen: DIETHYLNITROSAMINE, 55-18-5, Doses [Carcinogen]: 20 PPM IN DRINKING WATER FOR 14 WK, Doses [Promoter]: 0, 5, 10 PPM TECHNICAL GRADE IN DIET BEGINNING 4 WK POST LAST CARCINOGEN DOSE AND CONTINUING FOR 25 WK (STUDY DURATION:, Doses [Promoter]: 0, 5, 10 PPM TECHNICAL GRADE IN DIET BEGINNING 4 WK POST LAST CARCINOGEN DOSE AND CONTINUING FOR 25 WK (STUDY DURATION:, Route [Carcinogen]: ORAL, Route [Promoter]: ORAL, Species: MOUSE, Strain/Sex: B6C3F1/MALE) does the source give for `ClC1=C(Cl)C2(Cl)C3C(Cl)C=CC3C1(Cl)C2(Cl)Cl` (centres undefined) here?
**A.** liver: adenoma or carcinoma

**Q.** Which outcome (Carcinogen: Benzo[a]pyrene, 50-32-8, Doses [Carcinogen]: 150 mg applied once, Doses [Promoter]: 0 (acetone), 0.1, 0.5, 1.0 mg/mouse, 3x.wk for 26 wk, study duration 26 wk, Doses [Promoter]: 0 (acetone), 0.1, 0.5, 1.0 mg/mouse, 3x.wk for 26 wk, study duration 26 wk, Route [Carcinogen]: Not reported, Route [Promoter]: Dermal, Species: Mouse, Strain/Sex: CD-1/Female (30/Group)) does the source give for `C=O` here?
**A.** skin: results were negative

**Q.** What about the outcome (Carcinogen: N,N-Diethylnitrosamine, 55-18-5, Doses [Carcinogen]: 0.5 mg injections once a wk for 10 wk, Doses [Promoter]: 30 ppm weekly doses in various combinations from wk 12 for life of the animal, Route [Carcinogen]: Subcutaneous, Route [Promoter]: Inhalation, Species: Hamster, Strain/Sex: Syrian golden/Male (50/Group_) of the same compound?
**A.** nasal epithelium: results were negative

**Q.** Which outcome (Carcinogen: N-ETHYL-N-(2-HYDROXYETHYL)NITROSAMINE, Doses [Carcinogen]: 500, 1000 PPM IN DIET FOR TWO WK, Doses [Promoter]: 450 MG/KG 1/D FOR 7 D AFTER INITIATION FOR 2 WK, Route [Carcinogen]: ORAL, Route [Promoter]: SUBCUTANEOUS, Species: RAT, Strain/Sex: WISTAR/MALE) does the source give for `OC[C@H]1O[C@@H]2O[C@H]3[C@H](O)[C@@H](O)[C@@H](O[C@H]4[C@H](O)[C@@H](O)[C@@H](O[C@H]5[C@H](O)[C@@H](O)[C@@H](O[C@H]6[C@H](O)[C@@H](O)[C@@H](O[C@H]7[C@H](O)[C@@H](O)[C@@H](O[C@H]8[C@H](O)[C@@H](O)[C@@H](O[C@H]1[C@H](O)[C@H]2O)O[C@@H]8CO)O[C@@H]7CO)O[C@@H]6CO)O[C@@H]5CO)O[C@@H]4CO)O[C@@H]3CO` here?
**A.** kidney: tubular cell tumor

**Q.** With `CCCCCCCCCC(=O)O[C@@]12C[C@@H](C)[C@@]3(O)[C@@H](C=C(CO)C[C@]4(O)C(=O)C(C)=C[C@@H]34)[C@@H]1C2(C)C` as the compound, how does the outcome (Carcinogen: 7,12-DIMETHYLBENZ[A]ANTHRACENE, 57-97-6, Doses [Carcinogen]: 100 NMOL ONCE, Doses [Promoter]: 0, 40 NMOL 2/WK FOR 48 WK (STUDY DURATION: 48 WK), Route [Carcinogen]: DERMAL, Route [Promoter]: DERMAL, Species: MOUSE, Strain/Sex: NMRI) read?
**A.** skin: tumor
